Data on one compound can be found in ChEMBL document CHEMBL1132317, “Solution structure of iron(III)-anthracycline complexes” (J Med Chem, 1999).

This experiment concerns K562. Description: Cytotoxic activity against K562 erythroleukemic cells. To be noted: Homo sapiens. Format: functional, cell-based.

For `CC(=O)[C@]1(O)Cc2c(O)c3c(c(O)c2[C@@H](O[C@H]2C[C@H](N)[C@H](O)[C@H](C)O2)C1)C(=O)c1ccccc1C3=O` [IDARUBICIN], 2 nM corresponded to half-maximal inhibition (IC50). That is a single-digit nanomolar value.
